Calls of active or inactive are those of the source. The rule behind the calls is not given here.
Assays:
[1] = system: Radical scavenging activity; experiment: Antioxidant activity assessed as DPPH radical scavenging activity after 5 mins; format: functional
[2] = system: L5178Y; experiment: Cytotoxicity against mouse L5178Y cells at 10 ug/mL by MTT assay; format: functional, cell-based

| IC50 [1] | Compound | Activity [2] |
| --- | --- | --- |
| 150 µM | Oc1ccc(/C=C/c2cc(O)cc(O)c2)cc1 [RESVERATROL] | – |
| 663 µM | COc1ccc(CCc2c(O)ccc(O[C@@H]3O[C@H](CO)[C@@H](O)[C@H](O)[C@H]3O)c2C(C)=O)cc1OC [SCORZODIHYDROSTILBENE B] | inactive |
| 731 µM | COc1ccc(CCc2c(O[C@@H]3O[C@H](CO)[C@@H](O)[C@H](O)[C@H]3O)ccc(O)c2C(C)=O)cc1OC [SCORZODIHYDROSTILBENE D] | – |
| 106 µM | COc1cc(CCc2c(O)ccc(O[C@@H]3O[C@H](CO)[C@@H](O)[C@H](O)[C@H]3O)c2C(C)=O)ccc1O [SCORZODIHYDROSTILBENE A] | inactive |
| 103 µM | COc1cc(CCc2c(O)ccc(O[C@@H]3O[C@H](CO)[C@@H](O)[C@H](O)[C@H]3O)c2C(C)=O)cc(-c2cc(CCc3c(O)ccc(O[C@@H]4O[C@H](CO)[C@@H](O)[C@H](O)[C@H]4O)c3C(C)=O)cc(OC)c2O)c1O [SCORZODIHYDROSTILBENE E] | – |
| 486 µM | CC(=O)c1c(O[C@@H]2O[C@H](CO)[C@@H](O)[C@H](O)[C@H]2O)ccc(O)c1CCc1ccc(O)cc1 [SCORZODIHYDROSTILBENE C] | – |

Source: ChEMBL document CHEMBL1151841, “Dihydrostilbene derivatives from the Mongolian medicinal plant Scorzonera radiata” (J Nat Prod, 2009)
